Experimental data: patent US8962844B2, “1,3,4-oxadiazole and 1,3,4-thiadiazole β-lactamase inhibitors” (priority 2012, dated 2015)
Where a name gives a salt, the structure may show the parent alone.

Legend:
[1] = test system: bacterial strains that express the class D cephalosporinase OXA-15; assay: Standard BLI potentiation MIC / synergy MIC (sMIC) assays run in the presence of a β-lactam, OXA-15 expressing strains; assay type: cell-based, E. coli; details: BLI in combination with a β-lactam; comparison with Avibactam (comparator compound CCC)
Excerpt: (§1) Unless otherwise indicated, the activity of the BLI compounds can be described by the MIC value obtained from a Synergy MIC assay or a BLI potentiation assay (e.g as described herein), both of which are run in the presence of a β-lactam.
(§2) A set of β-lactamase expressing isogenic E. coli strains was constructed by cloning a β-lactamase gene into a customized derivative of pBR322 (GenBank Accession Number J01749) and transforming the engineered plasmids into E. coli. The NdeI restriction site within the plasmid backbone of pBR322 was removed to generate pBR322 ΔNdeI. The pBR322 ΔNdeI vector itself, minus the blaTEM-1 gene, was amplified using two primers: (1) pBR-Pbla 5′-cgcatatgactettectttttcaatattattg-3, SEQ ID 1, a primer with an engineered NdeI restriction site at the 3′ end of the blaTEM-1 promoter and (2) pBR-vec-1 5′-[…]-3′, SEQ ID 2, a primer with an engineered BamHI restriction site at the 3′ end of the blaTEM-1 open reading frame. The chloramphenicol resistance gene, cat, was generated by PCR amplification from pKD3 (GenBank Accession Number AY048742) using primers with an engineered NdeI restriction site at the 5′ end (Pbla-cat 5′-[…]-3′, SEQ ID 3) and an engineered BamHI restriction site at the 3′ end (Vec-1-cat 5′-[…]-3′, SEQ ID 4) of the resistance gene. The two PCR products, pBR322 ΔNdeI and cat were ligated together generating pBR-CBST (pBR322 ΔNdeI ΔTEM-1::cat Seq. ID 5) which retains both the pBR322 tetracycline resistance cassette, tetA, and the plasmid origin of replication but the blaTEM-1 gene was replaced by the cat gene.
(§3) Using this engineering strategy a number of plasmids producing β-lactamase genes from different classes (see below) were generated using synthetic genes with an engineered NdeI restriction site at the 5′ end and BamHI restriction site at the 3′ end of each gene (GenScript). Both the synthetic β-lactamase genes and cat gene were ligated into the NdeI/BamHI sites of the pBR322 ΔNdeI PCR product and transformed into electrocompetent E. coli ElectroMax DH10B (Invitrogen/Life Technologies). E. coli DH10B harboring the recombinant plasmids were selected on LB agar (supplemented with 25 μg/mL tetracycline) and single isolated colonies were then inoculated into 5 mL LB media (supplemented with 25 μg/mL tetracycline), and incubated at 37° C. with aeration (250 rpm) for 18 hrs. The cultures were frozen back at −80° C. in 20% glycerol. The DNA sequence of the cloned β-lactamase genes was confirmed. The β-lactamase gene expression in the recombinant E. coli strains was driven by the blaTEM-1 promoter in the pBR-CBST plasmid and was characterized by MIC profiling of the E. coli recombinant strains against comparator β-lactam/BLI combinations in broth microdilution assay.
(§4) The experimental protocol was performed according to Clinical and Laboratory Standards Institute (CLSI) guidelines with modifications as described below (CLSI guidelines can be derived from the CLSI document M07-A9 published in January 2012: “Methods for Dilution Antimicrobial Susceptibility Tests for Bacteria That Grow Aerobically; Approved Standard-Ninth Edition”).
(§5) To prepare for MIC testing, frozen glycerol stocks of clinical isolates (Klebsiella pneumoniae, Eschericia coli, Enterobacter spp, Citrobacter spp, or Pseudomonas aeruginosa) were used to streak for isolated colonies on rich, non-selective, tryptic soy agar containing 5% sheep's blood (TSAB). Frozen glycerol stocks of laboratory engineered, isogenic E. coli strains, which contain cloned β-lactamase expressing plasmids were used to streak for isolated colonies on rich, selective LB agar supplemented with 25 μg/mL tetracycline to maintain the plasmid. All strains were incubated at 37° C. for 18-24 hrs.
(§6) On the day of testing, primary cultures were started by scraping off 5-10 colonies from the TSAB plates containing clinical strains or the tetracycline supplemented LB plates containing engineered strains. […]

[2] = test system: bacterial strains that express KPC β-lactamases; assay: Standard BLI potentiation MIC / synergy MIC (sMIC) assays run in the presence of a β-lactam, KPC expressing strains; assay type: cell-based; details: more active for at least one KPC strain and/or better spectrum of activity than Avibactam; BLI in combination with a β-lactam
Excerpt: as §1, §2, §3, §4, §5, §6

Row | Compound | activity against bacterial strains that express the class D cephalosporinase OXA-15, compared with Avibactam [1] | activity and/or spectrum of activity against bacterial strains that express KPC β-lactamases, compared with Avibactam [2]
1 | O=C1N2C[C@@H](CC[C@H]2c2nnc(CNC3CNC3)o2)N1OS(=O)(=O)O [Compound 726, (2S,5R)-2-(5-((azetidin-3-ylamino)methyl)-1,3,4-oxadiazol-2-yl)-7-oxo-1,6-diazabicyclo[3.2.1]octan-6-yl hydrogen sulfate] | more active than Avibactam | more active than Avibactam
2 | N[C@H]1C[C@H](c2nnc([C@@H]3CC[C@@H]4CN3C(=O)N4OS(=O)(=O)O)o2)C1 [Compound 727, (2S,5R)-2-(5-((1r,3S)-3-aminocyclobutyl)-1,3,4-oxadiazol-2-yl)-7-oxo-1,6-diazabicyclo[3.2.1]octan-6-yl hydrogen sulfate] | more active than Avibactam | more active than Avibactam
3 | N[C@H]1C[C@@H](Cc2nnc([C@@H]3CC[C@@H]4CN3C(=O)N4OS(=O)(=O)O)o2)C1 [Compound 728, (2S,5R)-2-(5-(((1s,3R)-3-aminocyclobutyl)methyl)-1,3,4-oxadiazol-2-yl)-7-oxo-1,6-diazabicyclo[3.2.1]octan-6-yl hydrogen sulfate] | more active than Avibactam | more active than Avibactam
4 | N[C@@H]1CC[C@H](c2nnc([C@@H]3CC[C@@H]4CN3C(=O)N4OS(=O)(=O)O)o2)C1 [Compound 729, (2S,5R)-2-(5-((1S,3R)-3-aminocyclopentyl)-1,3,4-oxadiazol-2-yl)-7-oxo-1,6-diazabicyclo[3.2.1]octan-6-yl hydrogen sulfate] | more active than Avibactam | more active than Avibactam
5 | N=C(N)NCC(O)Cc1nnc([C@@H]2CC[C@@H]3CN2C(=O)N3OS(=O)(=O)O)o1 (stereo partly drawn) [Compound 730, (2S,5R)-2-(5-(3-guanidino-2-hydroxypropyl)-1,3,4-oxadiazol-2-yl)-7-oxo-1,6-diazabicyclo[3.2.1]octan-6-yl hydrogen sulfate] | more active than Avibactam | more active than Avibactam
6 | N=C(N)NC[C@@H](O)c1nnc([C@@H]2CC[C@@H]3CN2C(=O)N3OS(=O)(=O)O)o1 [Compound 731, (2S,5R)-2-(5-((R)-2-guanidino-1-hydroxyethyl)-1,3,4-oxadiazol-2-yl)-7-oxo-1,6-diazabicyclo[3.2.1]octan-6-yl hydrogen sulfate] | more active than Avibactam | more active than Avibactam
7 | N=C(N)NC[C@H](O)c1nnc([C@@H]2CC[C@@H]3CN2C(=O)N3OS(=O)(=O)O)o1 [Compound 732, (2S,5R)-2-(5-((S)-2-guanidino-1-hydroxyethyl)-1,3,4-oxadiazol-2-yl)-7-oxo-1,6-diazabicyclo[3.2.1]octan-6-yl hydrogen sulfate] | more active than Avibactam | more active than Avibactam
8 | CNCCCc1nnc([C@@H]2CC[C@@H]3CN2C(=O)N3OS(=O)(=O)O)o1 [Compound 734, (2S,5R)-2-(5-(3-(methylamino)propyl)-1,3,4-oxadiazol-2-yl)-7-oxo-1,6-diazabicyclo[3.2.1]octan-6-yl hydrogen sulfate] | more active than Avibactam | more active than Avibactam
9 | NCCCCc1nnc([C@@H]2CC[C@@H]3CN2C(=O)N3OS(=O)(=O)O)o1 [Compound 735, (2S,5R)-2-(5-(4-aminobutyl)-1,3,4-oxadiazol-2-yl)-7-oxo-1,6-diazabicyclo[3.2.1]octan-6-yl hydrogen sulfate] | more active than Avibactam | more active than Avibactam
10 | O=C1N2C[C@@H](CC[C@H]2c2nnc(CCNCCO)o2)N1OS(=O)(=O)O [Compound 736, (2S,5R)-2-(5-(2-((2-hydroxyethyl)amino)ethyl)-1,3,4-oxadiazol-2-yl)-7-oxo-1,6-diazabicyclo[3.2.1]octan-6-yl hydrogen sulfate] | more active than Avibactam | more active than Avibactam
11 | CC(C)(N)Cc1nnc([C@@H]2CC[C@@H]3CN2C(=O)N3OS(=O)(=O)O)o1 [Compound 737, (2S,5R)-2-(5-(2-amino-2-methylpropyl)-1,3,4-oxadiazol-2-yl)-7-oxo-1,6-diazabicyclo[3.2.1]octan-6-yl hydrogen sulfate] | more active than Avibactam | more active than Avibactam
12 | N=C(N)Nc1nnc([C@@H]2CC[C@@H]3CN2C(=O)N3OS(=O)(=O)O)o1 [Compound 738, (2S,5R)-2-(5-guanidino-1,3,4-oxadiazol-2-yl)-7-oxo-1,6-diazabicyclo[3.2.1]octan-6-yl hydrogen sulfate] | more active than Avibactam | more active than Avibactam
13 | N=C(N)NC1(Cc2nnc([C@@H]3CC[C@@H]4CN3C(=O)N4OS(=O)(=O)O)o2)CC1 [Compound 739, (2S,5R)-2-(5-((1-guanidinocyclopropyl)methyl)-1,3,4-oxadiazol-2-yl)-7-oxo-1,6-diazabicyclo[3.2.1]octan-6-yl hydrogen sulfate] | more active than Avibactam | more active than Avibactam
14 | O=C1N2C[C@@H](CC[C@H]2c2nnc([C@H]3[C@@H]4CNC[C@@H]43)o2)N1OS(=O)(=O)O [Compound 740, (2S,5R)-2-(5-(3-azabicyclo[3.1.0]hexan-6-yl)-1,3,4-oxadiazol-2-yl)-7-oxo-1,6-diazabicyclo[3.2.1]octan-6-yl hydrogen sulfate] | more active than Avibactam | more active than Avibactam
15 | N=C(N)N1CC(Cc2nnc([C@@H]3CC[C@@H]4CN3C(=O)N4OS(=O)(=O)O)o2)C1 [Compound 741, (2S,5R)-2-(5-((1-carbamimidoylazetidin-3-yl)methyl)-1,3,4-oxadiazol-2-yl)-7-oxo-1,6-diazabicyclo[3.2.1]octan-6-yl hydrogen sulfate] | more active than Avibactam | more active than Avibactam
